Experimental findings from ChEMBL document CHEMBL4837206, “Synthesis and biological evaluation of novel isoxazole-piperazine hybrids as potential anti-cancer agents with inhibitory effect on liver cancer stem cells” (Eur J Med Chem, 2021) are described below.

Active and inactive are the calls of the source. No cut-off for these calls is given here.

For test [1], the system named is HepG2. The test can be described thus: Induction of apoptosis in human HepG2 cells at 5 uM measured after 72 hrs by Annexin V-FITC/propidium iodide staining based flow cytometric analysis. Format: functional, cell-based.
Test [2] concerns Huh-7. The test can be described thus: Induction of apoptosis in human Huh-7 cells assessed as nuclear fragmentation measured after 48 hrs by Hoechst33258 staining based inverted fluorescent microscopic method. Format: functional, cell-based.
Test [3] concerns SNU-475. The test can be described thus: Cell cycle arrest in human SNU-475 cells assessed as increase in accumulation of cells at G2/M phase at 5 uM measured after 48 hrs by propidium iodide staining based flow cytometric analysis. Format: functional. (In general: A flow cytometer gives signals particle by particle.)
Test [4] addresses T1, Mitogen-activated protein kinase; ERK1/ERK2 (Homo sapiens) (UniProt P27361+P28482). Put plainly: Downregulation of ERK1/2 phosphorylation at T202/Y204 residue in human HepG2 cells at 5 uM measured after 72 hrs by Western blot analysis. Type of test: cell-based. (In western blotting, separated proteins are transferred to a membrane and probed.)
The subject of test [5] is SNU-475. Put plainly: Activation of p53 harboring A239G/T275C/A288G mutant in human SNU-475 cells assessed as upregulation of p53 phosphorylation at Ser15 residue at 5 uM incubated for 72 hrs by western blot analysis. Type of test: cell-based. The following applies: filed as activator.
The test system of test [6] is Mahlavu. The test can be described thus: Induction of apoptosis in human Mahlavu cells assessed as chromatin condensation measured after 48 hrs by Hoechst33258 staining based inverted fluorescent microscopic method. Format: functional, cell-based.
Test [7] concerns Mahlavu. The test can be described thus: Cell cycle arrest in human Mahlavu cells assessed as increase in accumulation of cells at subG1 phase at 5 uM measured after 48 hrs by propidium iodide staining based flow cytometric analysis. Format: functional.
Test [8] concerns the target T1, Mitogen-activated protein kinase; ERK1/ERK2 (Homo sapiens). Put plainly: Downregulation of ERK1/2 phosphorylation at T202/Y204 residue in human Huh-7 cells at 5 uM measured after 72 hrs by Western blot analysis. Format: cell-based.
The test system of test [9] is Mahlavu. The test can be described thus: Antiproliferative activity against human Mahlavu cells assessed as reduction in cell viability measured after 90 hrs by RT-CES analysis. Format: functional, cell-based.
Test [10] concerns Huh-7. The test can be described thus: Antiproliferative activity against human Huh-7 cells assessed as reduction in cell viability measured for 180 hrs by RT-CES analysis. Format: functional, cell-based. The following applies: dose 2.5-10 µM.
Test [11] deals with Cellular tumor antigen p53 (Homo sapiens) (UniProt P04637). The test can be described thus: Activation of p53 in human HepG2 cells at 5 uM measured after 72 hrs by Western blot analysis. Type of test: cell-based.
Sequence of Cellular tumor antigen p53 (Homo sapiens) (P04637 whole entry, looked up): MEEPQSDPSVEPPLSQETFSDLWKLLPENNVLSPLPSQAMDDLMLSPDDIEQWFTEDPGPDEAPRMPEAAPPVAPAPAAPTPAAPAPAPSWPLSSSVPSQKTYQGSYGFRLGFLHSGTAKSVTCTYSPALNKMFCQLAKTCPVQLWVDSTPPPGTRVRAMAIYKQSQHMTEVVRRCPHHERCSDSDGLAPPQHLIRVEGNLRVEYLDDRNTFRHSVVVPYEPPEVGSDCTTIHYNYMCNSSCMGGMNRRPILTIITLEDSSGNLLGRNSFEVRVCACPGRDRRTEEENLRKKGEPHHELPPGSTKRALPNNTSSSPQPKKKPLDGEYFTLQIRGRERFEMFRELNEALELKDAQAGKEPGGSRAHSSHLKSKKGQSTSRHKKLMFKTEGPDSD
For test [12], the system named is Mahlavu. The test can be described thus: Cell cycle arrest in human Mahlavu cells assessed as increase in accumulation of cells at G0/G1 phase at 5 uM measured after 48 hrs by propidium iodide staining based flow cytometric analysis. Type of test: functional.
In test [13] the test system is SNU-475. Put plainly: Cell cycle arrest in human SNU-475 cells assessed as increase in accumulation of cells at S phase at 5 uM measured after 48 hrs by propidium iodide staining based flow cytometric analysis. Format: functional.
In test [14] the test system is HepG2. Put plainly: Induction of apoptosis in human HepG2 cells assessed as chromatin condensation measured after 48 hrs by Hoechst33258 staining based inverted fluorescent microscopic method. Format: functional, cell-based.
Test [15] has as its system Mahlavu. The test can be described thus: Activation of p53 harboring G249T mutant in human Mahlavu cells assessed as upregulation of p53 phosphorylation at Ser15 residue at 5 uM incubated for 72 hrs by western blot analysis. Format: cell-based. The following applies: filed as activator.
In test [16] the test system is Mahlavu. The test can be described thus: Induction of apoptosis in human Mahlavu cells at 5 uM measured after 72 hrs by Annexin V-FITC/propidium iodide staining based flow cytometric analysis. Type of test: functional, cell-based.
Test [17] concerns the target T2, Serine/threonine-protein kinase AKT (Homo sapiens) (UniProt P31751+Q9Y243+P31749). The test can be described thus: Inhibition of Akt phosphorylation at Ser473 residue in human Mahlavu cells at 5 uM measured after 72 hrs by Western blot analysis. Type of test: cell-based.
The test system of test [18] is Huh-7. The test can be described thus: Inhibition of cell stemness in human Huh-7 cells assessed as reduction in tumor spheres count at 10 uM incubated for 72 hrs followed by incubation in sphere formation medium for 14 days by microscopic analysis. Format: functional, cell-based. The following applies: time 17.0 day.
Test [19] deals with Huh-7. Put plainly: Inhibition of cell stemness in human Huh-7 cells assessed as decrease in NANOG mRNA level at 10 uM measured after 72 hrs by RT-qPCR analysis. Format: functional, cell-based. On the technique in general: In qPCR the cycle at which signal appears reflects the starting amount.
The subject of test [20] is SNU-475. Put plainly: Antiproliferative activity against human SNU-475 cells assessed as reduction in cell viability measured after 40 to 130 hrs by RT-CES analysis. Format: functional, cell-based. The following applies: time 40-130 hrs.
The test system of test [21] is Huh-7. Put plainly: Inhibition of cell stemness in human Huh-7 cells assessed as decrease in OCT4 mRNA level at 10 uM measured after 72 hrs by RT-qPCR analysis. Type of test: functional, cell-based.
In test [22] the test system is SNU-475. Put plainly: Activation of p53 harboring A239G/T275C/A288G mutant in human SNU-475 cells assessed as upregulation of p53 acetylation at Lys382 residue at 5 uM incubated for 72 hrs by western blot analysis. Type of test: cell-based. The following applies: filed as activator.
In test [23] the test system is Mahlavu. The test can be described thus: Inhibition of cell stemness in human Mahlavu cells assessed as decrease in NANOG mRNA level at 10 uM measured after 72 hrs by RT-qPCR analysis. Format: functional, cell-based.
For test [24], the target named is T2, Serine/threonine-protein kinase AKT (Homo sapiens). Put plainly: Inhibition of Akt phosphorylation at Ser473 residue in human SNU-475 cells at 5 uM measured after 72 hrs by Western blot analysis. Type of test: cell-based.

T2 sequence (P31749 whole entry, looked up): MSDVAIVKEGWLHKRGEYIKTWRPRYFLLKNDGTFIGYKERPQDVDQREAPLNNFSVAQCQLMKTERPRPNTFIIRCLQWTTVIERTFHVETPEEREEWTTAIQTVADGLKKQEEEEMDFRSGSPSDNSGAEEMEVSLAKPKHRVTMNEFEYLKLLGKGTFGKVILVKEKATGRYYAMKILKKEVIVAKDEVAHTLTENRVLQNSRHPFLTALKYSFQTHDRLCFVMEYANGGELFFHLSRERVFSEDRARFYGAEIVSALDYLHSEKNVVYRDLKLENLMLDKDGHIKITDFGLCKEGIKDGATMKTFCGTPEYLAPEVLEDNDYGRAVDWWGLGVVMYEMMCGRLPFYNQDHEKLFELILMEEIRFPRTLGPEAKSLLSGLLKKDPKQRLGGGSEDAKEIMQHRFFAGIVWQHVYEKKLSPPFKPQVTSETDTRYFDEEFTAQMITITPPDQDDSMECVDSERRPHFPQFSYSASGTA
T2 sequence (P31751 whole entry, looked up): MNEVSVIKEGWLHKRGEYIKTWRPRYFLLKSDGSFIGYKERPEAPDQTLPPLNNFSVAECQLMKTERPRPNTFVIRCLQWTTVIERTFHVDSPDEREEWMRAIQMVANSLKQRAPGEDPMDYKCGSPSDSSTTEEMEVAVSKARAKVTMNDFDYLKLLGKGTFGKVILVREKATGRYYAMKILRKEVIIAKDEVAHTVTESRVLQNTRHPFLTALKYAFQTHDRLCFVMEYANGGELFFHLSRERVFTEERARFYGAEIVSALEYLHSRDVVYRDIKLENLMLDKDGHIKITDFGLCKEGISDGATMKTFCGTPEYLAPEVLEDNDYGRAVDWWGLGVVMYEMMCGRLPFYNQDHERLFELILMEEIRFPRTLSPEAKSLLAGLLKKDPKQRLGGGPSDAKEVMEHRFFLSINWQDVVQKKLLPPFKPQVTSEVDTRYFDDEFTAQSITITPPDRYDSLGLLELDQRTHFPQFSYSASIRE
T2 sequence (Q9Y243 whole entry, looked up): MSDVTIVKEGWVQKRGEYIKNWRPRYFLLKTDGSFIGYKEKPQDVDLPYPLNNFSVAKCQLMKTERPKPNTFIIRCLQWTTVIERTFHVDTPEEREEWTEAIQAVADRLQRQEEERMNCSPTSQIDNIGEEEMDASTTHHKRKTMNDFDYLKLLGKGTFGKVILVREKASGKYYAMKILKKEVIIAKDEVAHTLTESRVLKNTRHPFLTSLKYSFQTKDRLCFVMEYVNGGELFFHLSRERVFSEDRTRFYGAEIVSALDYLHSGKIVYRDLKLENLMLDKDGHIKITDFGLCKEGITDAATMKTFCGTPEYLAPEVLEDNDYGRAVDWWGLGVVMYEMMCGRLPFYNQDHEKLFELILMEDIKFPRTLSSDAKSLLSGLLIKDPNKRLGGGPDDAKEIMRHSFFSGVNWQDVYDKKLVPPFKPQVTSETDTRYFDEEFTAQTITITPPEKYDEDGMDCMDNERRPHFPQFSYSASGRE
T1 sequence (P27361 whole entry, looked up): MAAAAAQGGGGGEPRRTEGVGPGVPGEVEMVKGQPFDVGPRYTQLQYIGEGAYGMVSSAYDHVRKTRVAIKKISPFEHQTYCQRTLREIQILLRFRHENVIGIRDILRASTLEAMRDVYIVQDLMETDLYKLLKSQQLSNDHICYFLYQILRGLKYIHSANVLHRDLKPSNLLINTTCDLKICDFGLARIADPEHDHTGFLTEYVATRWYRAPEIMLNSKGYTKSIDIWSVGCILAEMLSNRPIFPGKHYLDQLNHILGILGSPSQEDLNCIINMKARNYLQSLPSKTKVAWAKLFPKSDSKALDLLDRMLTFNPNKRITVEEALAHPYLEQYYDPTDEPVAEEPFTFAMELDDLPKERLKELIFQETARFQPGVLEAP
T1 sequence (P28482 whole entry, looked up): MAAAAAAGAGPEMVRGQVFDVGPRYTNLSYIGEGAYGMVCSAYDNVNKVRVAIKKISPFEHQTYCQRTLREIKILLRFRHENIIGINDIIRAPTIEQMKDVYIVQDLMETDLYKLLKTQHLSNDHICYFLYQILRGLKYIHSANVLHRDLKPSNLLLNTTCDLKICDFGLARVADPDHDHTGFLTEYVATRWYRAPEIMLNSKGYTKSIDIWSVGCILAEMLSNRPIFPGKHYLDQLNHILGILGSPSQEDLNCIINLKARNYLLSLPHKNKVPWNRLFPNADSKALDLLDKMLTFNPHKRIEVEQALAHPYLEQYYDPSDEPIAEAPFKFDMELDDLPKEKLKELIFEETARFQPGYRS

`FC(F)(F)c1ccc(CN2CCN(Cc3cc(-c4ccc(OCc5ccccc5)cc4)on3)CC2)cc1`: the outcome in test [1], in [2], in test [3], in test [5], in test [6] and in test [7] was Active. The outcome in [9], in test [12], in [13], in test [14], in test [15] and in [16] was Active. The result in test [20] was Active. Moreover, the inhibition result in [4], in [8], in test [17], in test [18], in test [19] and in [21] was “Active” throughout. Further, in [10], the Activity entry is “Dose-Dependent Effect”. Besides, the result in [11] was inactive.
Take `N#Cc1cccc(COc2ccc(-c3cc(CN4CCN(Cc5ccc(C(F)(F)F)cc5)CC4)no3)cc2F)c1`: the result in test [1], in test [2], in test [3], in test [5], in [22] and in [6] was Active. Further, the result in test [7], in [9], in test [12], in test [13], in test [14] and in test [16] was Active. The outcome in test [20] was Active. Besides, the inhibition result in test [4], in test [23], in test [8], in test [17], in test [24] and in test [18] was “Active” in each case. Also, the inhibition entry in test [19] and in [21] was “Active” each time. Besides, in test [10], the Activity result was “Dose-Dependent Effect”. Further, the outcome in test [11] was inactive.
